Drawing on publication PMC6934184, “Selective DNA-PKcs inhibition extends the therapeutic index of localized radiotherapy and chemotherapy” (The Journal of Clinical Investigation, 2019), this text covers inhibition for one molecule.

This test has as its target T1, PDGFRA V561D (Homo sapiens, UniProt P16234, V561D).
T1 construct: purchased Thermo Fisher Scientific (Life Technologies) SelectScreen
Description: SelectScreen Z'LYTE. The test is classed as biochemical. Summed up:
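Percent values come from Thermo SelectScreen profiling of NU5455, combining activity and binding assays. CSF1R was run in Z'LYTE format at Km app ATP, and CAMK1 in Adapta format with ATP listed at 10.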

T1 sequence (P16234 24-1089 V561D): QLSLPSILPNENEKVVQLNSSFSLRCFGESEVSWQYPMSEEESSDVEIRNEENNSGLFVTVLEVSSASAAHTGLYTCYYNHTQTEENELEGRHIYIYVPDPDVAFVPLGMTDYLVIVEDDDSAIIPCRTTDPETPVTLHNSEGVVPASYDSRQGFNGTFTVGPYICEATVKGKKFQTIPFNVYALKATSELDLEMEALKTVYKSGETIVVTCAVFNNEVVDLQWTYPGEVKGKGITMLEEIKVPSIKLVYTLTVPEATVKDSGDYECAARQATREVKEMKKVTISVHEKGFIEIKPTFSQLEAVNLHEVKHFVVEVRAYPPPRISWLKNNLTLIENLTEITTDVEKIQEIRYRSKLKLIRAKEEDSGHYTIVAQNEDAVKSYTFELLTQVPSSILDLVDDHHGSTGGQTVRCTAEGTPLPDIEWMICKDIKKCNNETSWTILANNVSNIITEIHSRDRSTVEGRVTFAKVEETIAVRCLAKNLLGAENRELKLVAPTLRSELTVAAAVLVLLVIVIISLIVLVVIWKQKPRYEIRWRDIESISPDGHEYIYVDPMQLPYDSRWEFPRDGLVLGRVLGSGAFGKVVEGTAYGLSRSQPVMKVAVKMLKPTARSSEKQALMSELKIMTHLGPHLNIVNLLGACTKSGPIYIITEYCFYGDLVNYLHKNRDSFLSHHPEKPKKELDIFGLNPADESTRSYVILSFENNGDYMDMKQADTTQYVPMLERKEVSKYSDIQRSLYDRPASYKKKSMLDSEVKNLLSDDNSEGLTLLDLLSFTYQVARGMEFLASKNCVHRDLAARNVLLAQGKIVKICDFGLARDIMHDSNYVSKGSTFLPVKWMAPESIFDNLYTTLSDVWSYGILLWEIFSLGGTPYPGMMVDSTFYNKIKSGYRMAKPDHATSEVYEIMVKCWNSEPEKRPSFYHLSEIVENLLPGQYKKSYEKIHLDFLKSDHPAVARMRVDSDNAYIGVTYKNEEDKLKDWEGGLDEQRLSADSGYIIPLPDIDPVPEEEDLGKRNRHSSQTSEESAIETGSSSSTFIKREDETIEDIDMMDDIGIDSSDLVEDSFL

As for `CN(C(=O)CN1CCOCC1)c1ccc2sc3c(-c4cccc5c(=O)cc(N6CC7CCC(C6)O7)oc45)cccc3c2c1` [NU5455], the inhibition at 1 µM was -2.3%.
